What follows are molecules tested against T1, HEK cells stably transfected with tetracycline inducible hNR1 and hNR2A (Homo sapiens, UniProt Q05586+Q12879) (assay: Assay 1: Cell-Based Assay, cytosolic calcium response to positive allosteric modulators (with 30 μM glycine and 300 nM L-glutamate, EC30)). Settings: Table 3; cytosolic calcium response, with 30 μM glycine and 300 nM L-glutamate (EC30); — = no plateau was reached.
T1 construct: expressed in transfected cells; host or cells: HEK cells, stably transfected, tetracycline/doxycycline inducible
T1 sequence (Q12879 23-1464, other chains not shown): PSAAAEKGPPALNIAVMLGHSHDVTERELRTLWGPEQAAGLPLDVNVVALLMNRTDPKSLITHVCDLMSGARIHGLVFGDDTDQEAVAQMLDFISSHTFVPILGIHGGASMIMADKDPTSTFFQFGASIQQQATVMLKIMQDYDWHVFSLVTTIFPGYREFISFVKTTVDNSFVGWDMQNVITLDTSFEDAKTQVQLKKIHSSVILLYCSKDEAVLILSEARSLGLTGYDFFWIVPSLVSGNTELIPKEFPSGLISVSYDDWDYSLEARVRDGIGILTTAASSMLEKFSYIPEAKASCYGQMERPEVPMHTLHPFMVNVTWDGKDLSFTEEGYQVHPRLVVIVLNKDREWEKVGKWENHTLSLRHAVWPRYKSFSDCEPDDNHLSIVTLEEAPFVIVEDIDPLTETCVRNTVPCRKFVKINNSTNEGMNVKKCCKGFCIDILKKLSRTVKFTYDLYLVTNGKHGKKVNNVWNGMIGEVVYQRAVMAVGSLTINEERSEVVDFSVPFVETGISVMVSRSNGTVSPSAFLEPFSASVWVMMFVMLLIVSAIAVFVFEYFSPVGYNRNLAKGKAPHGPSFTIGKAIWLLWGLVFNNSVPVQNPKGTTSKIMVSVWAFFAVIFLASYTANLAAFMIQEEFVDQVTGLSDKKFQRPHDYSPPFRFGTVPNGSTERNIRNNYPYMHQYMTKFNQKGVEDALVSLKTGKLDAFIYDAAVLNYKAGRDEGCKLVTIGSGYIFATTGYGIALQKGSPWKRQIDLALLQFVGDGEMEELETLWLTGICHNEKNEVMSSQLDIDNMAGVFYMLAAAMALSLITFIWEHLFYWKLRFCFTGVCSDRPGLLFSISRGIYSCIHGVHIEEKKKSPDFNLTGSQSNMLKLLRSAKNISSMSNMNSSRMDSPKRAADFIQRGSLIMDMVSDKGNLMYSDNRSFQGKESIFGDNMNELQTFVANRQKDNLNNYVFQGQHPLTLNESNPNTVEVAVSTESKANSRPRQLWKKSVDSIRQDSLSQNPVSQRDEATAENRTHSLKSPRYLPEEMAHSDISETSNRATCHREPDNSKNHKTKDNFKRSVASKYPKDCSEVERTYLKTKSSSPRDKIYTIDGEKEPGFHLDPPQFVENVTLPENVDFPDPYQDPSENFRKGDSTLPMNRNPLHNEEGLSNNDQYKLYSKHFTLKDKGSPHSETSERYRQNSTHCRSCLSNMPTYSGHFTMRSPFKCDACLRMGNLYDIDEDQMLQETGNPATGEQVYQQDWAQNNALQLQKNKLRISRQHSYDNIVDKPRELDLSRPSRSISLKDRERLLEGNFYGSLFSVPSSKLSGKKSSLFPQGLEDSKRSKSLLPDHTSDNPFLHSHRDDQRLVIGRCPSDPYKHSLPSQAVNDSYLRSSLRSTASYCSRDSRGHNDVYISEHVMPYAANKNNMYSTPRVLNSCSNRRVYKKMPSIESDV
Outline: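 Cells induced 24 h with 7.5 μg mL^−1 doxycycline plus 500 μM (+)-ketamine, loaded 60 min at 37 °C with calcium dye in Mg-free HBSS (1.8 mM Ca, probenecid, 10 μM (+)-ketamine, pH 7.15). Peak RFU over 5 min after compound addition, scaled to 100 μM L-glutamate (100%) and 0 μM (0%); four-parameter Hill fit for EC50, max % if no plateau.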

| Compound | EC50 |
| --- | --- |
| Cc1sc2nc(Cn3nc(Cl)cc3C(F)(F)F)cc(=O)n2c1-c1cncnc1 [compound 122, 7-[[3-chloro-5-(trifluoromethyl)pyrazol-1-yl]methyl]-2-methyl-3-pyrimidin-5-yl-thiazolo[3,2-a]pyrimidin-5-one] | 9140 nM |
| CCNC(=O)c1c(C)sc2nc(Cn3nc(C4CC4)cc3C(F)(F)F)cc(=O)n12 [compound 123, 7-[[3-cyclopropyl-5-(trifluoromethyl)pyrazol-1-yl]methyl]-N-ethyl-2-methyl-5-oxo-thiazolo[3,2-a]pyrimidine-3-carboxamide] | 2590 nM |
| CCNC(=O)c1c(C)sc2nc(CN(C)c3ccc(Cl)cn3)cc(=O)n12 [compound 124, 7-[[(5-chloro-2-pyridyl)-methyl-amino]methyl]-N-ethyl-2-methyl-5-oxo-thiazolo[3,2-a]pyrimidine-3-carboxamide] | 5900 nM |
| CCNC(=O)c1c(OC)sc2nc(Cn3nc(Cl)cc3C(F)(F)F)cc(=O)n12 [compound 127, 7-[[3-chloro-5-(trifluoromethyl)pyrazol-1-yl]methyl]-N-ethyl-2-methoxy-5-oxo-thiazolo[3,2-a]pyrimidine-3-carboxamide] | 4870 nM |
| CCNC(=O)c1c(OC)sc2nc(Cn3nc(C(F)(F)F)cc3Cl)cc(=O)n12 [compound 128, 7-[[5-chloro-3-(trifluoromethyl)pyrazol-1-yl]methyl]-N-ethyl-2-methoxy-5-oxo-thiazolo[3,2-a]pyrimidine-3-carboxamide] | 682 nM |
| CCNC(=O)c1c(OC)sc2nc(Cn3nc(C(F)(F)F)cc3C3CC3)cc(=O)n12 [compound 129, 7-[[5-cyclopropyl-3-(trifluoromethyl)pyrazol-1-yl]methyl]-N-ethyl-2-methoxy-5-oxo-thiazolo[3,2-a]pyrimidine-3-carboxamide] | 774 nM |
| CCNC(=O)c1c(OC)sc2nc(Cn3nc(C4CC4)cc3C(F)(F)F)cc(=O)n12 [compound 130, 7-[[3-cyclopropyl-5-(trifluoromethyl)pyrazol-1-yl]methyl]-N-ethyl-2-methoxy-5-oxo-thiazolo[3,2-a]pyrimidine-3-carboxamide] | 6860 nM |
| Cc1sc2nc(Cc3cccc(C(F)(F)F)c3F)cc(=O)n2c1C1CC1C#N (stereo not shown) [compound 131, 2-[7-[[2-fluoro-3-(trifluoromethyl)phenyl]methyl]-2-methyl-5-oxo-thiazolo[3,2-a]pyrimidin-3-yl]cyclopropanecarbonitrile] | 681 nM |
| Cc1sc2nc(Cn3nc(C(F)(F)F)cc3Cl)cc(=O)n2c1-c1ccn[nH]1 [compound 132] | 2040 nM |
| Cc1sc2nc(Cn3nc(Cl)cc3C(F)(F)F)cc(=O)n2c1-c1ccn[nH]1 [compound 133, 7-[[3-chloro-5-(trifluoromethyl)pyrazol-1-yl]methyl]-2-methyl-3-(1H-pyrazol-5-yl)thiazolo[3,2-a]pyrimidin-5-one] | 10100 nM |
| Cc1sc2nc(Cn3nc(C(F)(F)F)cc3Cl)cc(=O)n2c1-c1cccnc1 [compound 134, 7-[[5-chloro-3-(trifluoromethyl)pyrazol-1-yl]methyl]-2-methyl-3-(3-pyridyl)thiazolo[3,2-a]pyrimidin-5-one] | 501 nM |
| C=C(C)c1c(C)sc2nc(Cn3nc(C(F)(F)F)cc3Cl)cc(=O)n12 [compound 135, 7-[[5-chloro-3-(trifluoromethyl)pyrazol-1-yl]methyl]-3-isopropenyl-2-methyl-thiazolo[3,2-a]pyrimidin-5-one] | 397 nM |
| Cc1sc2nc(Cn3nc(C(F)(F)F)cc3Cl)cc(=O)n2c1-c1cncc(F)c1 [compound 138, 7-[[5-chloro-3-(trifluoromethyl)pyrazol-1-yl]methyl]-3-(5-fluoro-3-pyridyl)-2-methyl-thiazolo[3,2-a]pyrimidin-5-one] | 775 nM |
| Cc1sc2nc(Cn3nc(Cl)cc3C(F)(F)F)cc(=O)n2c1-c1cncc(F)c1 [compound 139, 7-[[3-chloro-5-(trifluoromethyl)pyrazol-1-yl]methyl]-3-(5-fluoro-3-pyridyl)-2-methyl-thiazolo[3,2-a]pyrimidin-5-one] | 6360 nM |
| CCC(=O)c1c(C)sc2nc(Cn3nc(C(F)(F)F)cc3Cl)cc(=O)n12 [compound 140, 7-[[5-chloro-3-(trifluoromethyl)pyrazol-1-yl]methyl]-2-methyl-3-propanoyl-thiazolo[3,2-a]pyrimidin-5-one] | 147 nM |
| CCC(=O)c1c(C)sc2nc(Cn3nc(Cl)cc3C(F)(F)F)cc(=O)n12 [compound 141, 7-[[3-chloro-5-(trifluoromethyl)pyrazol-1-yl]methyl]-2-methyl-3-propanoyl-thiazolo[3,2-a]pyrimidin-5-one] | 328 nM |
| Cc1sc2nc(Cn3nc(C(F)(F)F)cc3Cl)cc(=O)n2c1-c1nccs1 [compound 142, 7-[[5-chloro-3-(trifluoromethyl)pyrazol-1-yl]methyl]-2-methyl-3-thiazol-2-yl-thiazolo[3,2-a]pyrimidin-5-one] | 2090 nM |

| Compound | EC50 |
| --- | --- |
| CCNC(=O)c1c(C)sc2nc(CN(C)c3ccc(F)cn3)cc(=O)n12 [compound 143, N-ethyl-7-[[(5-fluoro-2-pyridyl)-methyl-amino]methyl]-2-methyl-5-oxo-thiazolo[3,2-a]pyrimidine-3-carboxamide] | 12000 nM |
| N#CC1CC1c1c(C(F)(F)F)sc2nc(Cn3nc(C(F)(F)F)cc3Cl)cc(=O)n12 (stereo not shown) [compound 144, 2-[7-[[5-chloro-3-(trifluoromethyl)pyrazol-1-yl]methyl]-5-oxo-2-(trifluoromethyl)thiazolo[3,2-a]pyrimidin-3-yl]cyclopropanecarbonitrile] | 41.1 nM |
| N#CC1CC1c1c(C(F)(F)F)sc2nc(Cn3nc(Cl)cc3C(F)(F)F)cc(=O)n12 (stereo not shown) [compound 145, 2-[7-[[3-chloro-5-(trifluoromethyl)pyrazol-1-yl]methyl]-5-oxo-2-(trifluoromethyl)thiazolo[3,2-a]pyrimidin-3-yl]cyclopropanecarbonitrile] | 132 nM |
| N#Cc1cccc(Cc2cc(=O)n3c(C4CC4C(F)(F)F)c(C(F)(F)F)sc3n2)c1F (stereo not shown) [compound 146, 2-fluoro-3-[[5-oxo-2-(trifluoromethyl)-3-[2-(trifluoromethyl)cyclopropyl]thiazolo[3,2-a]pyrimidin-7-yl]methyl]benzonitrile] | 156 nM |
| CCNC(=O)c1c(C)sc2nc(CN(CC)c3ccc(F)cn3)cc(=O)n12 [compound 147, N-ethyl-7-[[ethyl-(5-fluoro-2-pyridyl)amino]methyl]-2-methyl-5-oxo-thiazolo[3,2-a]pyrimidine-3-carboxamide] | 1980 nM |
| CCNC(=O)c1c(C)sc2nc(CN(CC)c3ccccn3)cc(=O)n12 [compound 148, N-ethyl-7-[[ethyl(2-pyridyl)amino]methyl]-2-methyl-5-oxo-thiazolo[3,2-a]pyrimidine-3-carboxamide] | 20800 nM |
| Cc1sc2nc(Cn3nc(C(F)(F)F)cc3Cl)cc(=O)n2c1-c1cncc(Cl)c1 [compound 149, 3-(5-chloro-3-pyridyl)-7-[[5-chloro-3-(trifluoromethyl)pyrazol-1-yl]methyl]-2-methyl-thiazolo[3,2-a]pyrimidin-5-one] | 729 nM |
| Cc1sc2nc(Cn3nc(Cl)cc3C(F)(F)F)cc(=O)n2c1-c1cncc(Cl)c1 [compound 150, 3-(5-chloro-3-pyridyl)-7-[[3-chloro-5-(trifluoromethyl)pyrazol-1-yl]methyl]-2-methyl-thiazolo[3,2-a]pyrimidin-5-one] | 17300 nM |
| Cc1sc2nc(Cn3nc(C(F)(F)F)cc3Cl)cc(=O)n2c1-c1cscn1 [compound 151, 7-[[5-chloro-3-(trifluoromethyl)pyrazol-1-yl]methyl]-2-methyl-3-thiazol-4-yl-thiazolo[3,2-a]pyrimidin-5-one] | 538 nM |
| CCNC(=O)c1c(C)sc2nc(CN(CC)c3ccc(Cl)cn3)cc(=O)n12 [compound 152, 7-[[(5-chloro-2-pyridyl)-ethyl-amino]methyl]-N-ethyl-2-methyl-5-oxo-thiazolo[3,2-a]pyrimidine-3-carboxamide] | 2850 nM |
| Cc1sc2nc(Cn3nncc3C3CC3)cc(=O)n2c1C1CC1CO (stereo not shown) [compound 153, 7-[(5-Cyclopropyltriazol-1-yl)methyl]-3-[2-(hydroxymethyl)cyclopropyl]-2-methyl-thiazolo[3,2-a]pyrimidin-5-one] | 73500 nM |
| CCNC(=O)c1c(OCC)sc2nc(Cc3cccc(C(F)(F)F)c3F)cc(=O)n12 [compound 156, 2-ethoxy-N-ethyl-7-[[2-fluoro-3-(trifluoromethyl)phenyl]methyl]-5-oxo-thiazolo[3,2-a]pyrimidine-3-carboxamide] | 1470 nM |
| Cc1sc2nc(Cn3nc(C(F)(F)F)cc3Cl)cc(=O)n2c1-c1cccnc1F [compound 157, 7-[[5-chloro-3-(trifluoromethyl)pyrazol-1-yl]methyl]-3-(2-fluoro-3-pyridyl)-2-methyl-thiazolo[3,2-a]pyrimidin-5-one] | 13000 nM |
| Cc1sc2nc(Cn3nc(C(F)(F)F)cc3Cl)cc(=O)n2c1-c1ncco1 [compound 158, 7-[[5-chloro-3-(trifluoromethyl)pyrazol-1-yl]methyl]-2-methyl-3-oxazol-2-yl-thiazolo[3,2-a]pyrimidin-5-one] | 1420 nM |
| Cc1sc2nc(Cn3nc(Cl)cc3C(F)(F)F)cc(=O)n2c1-c1ncco1 [compound 159, 7-[[3-chloro-5-(trifluoromethyl)pyrazol-1-yl]methyl]-2-methyl-3-oxazol-2-yl-thiazolo[3,2-a]pyrimidin-5-one] | 7590 nM |
| Cc1sc2nc(Cn3nc(C(F)(F)F)cc3Cl)cc(=O)n2c1C(F)(F)F [compound 160, 7-[[5-chloro-3-(trifluoromethyl)pyrazol-1-yl]methyl]-2-methyl-3-(trifluoromethyl)thiazolo[3,2-a]pyrimidin-5-one] | 753 nM |
| Cc1sc2nc(Cn3nc(Cl)cc3C(F)(F)F)cc(=O)n2c1C(F)(F)F [compound 161, 7-[[3-chloro-5-(trifluoromethyl)pyrazol-1-yl]methyl]-2-methyl-3-(trifluoromethyl)thiazolo[3,2-a]pyrimidin-5-one] | 1490 nM |

From US9988400B2 (Genentech, Inc., priority 2013, dated 2018)
